Measured values published in publication PMC8624133, “10th Trends in Medical Mycology Held on 8 to 11 October 2021, Aberdeen, Scotland, Organized by the European Confederation of Medical Mycology (ECMM)” (Journal of Fungi, 2021).
Converted amounts (≈) assume the structure as drawn. “And” between values parts separate entries of the source, which are not always exact repeats. Equal values may be shown once. Read-outs that look alike come from different tables or passages of the source.

Legend:
yeasts = experiment: CLSI M27-A3 MIC; assay type: cell-based
[1] = test system: clinical Trichophyton spp. isolates; experiment: Checkerboard microdilution based on EUCAST; assay type: cell-based; conditions: for MIC: Trichophyton, read-out: geometric mean MIC, drug alone
Description: Materials & Methods: The combination has been tested against 9 terbinafine-susceptible and 7 terbinafine-resistant clinical Trichophyton spp. isolates from India. In vitro interactions were evaluated by a microdilution checkerboard technique based on the EUCAST reference method for antifungal susceptibility testing. The mode of interaction between terbinafine and itraconazole was determined by the fractional inhibitory concentration index (FICI). The FICI was interpreted as FICI ≤ 0.5 = synergy, FICI > 0.5–4 = no interaction, and FICI > 4.0 = antagonism.

Trichophyton spp. = experiment: Agar-based screening method; assay type: cell-based; conditions: 0.5 McF, 5 days, 30 °C
Description: Inter-experimental variation was evaluated by testing 10 isolates on three different days. Single-centre validation: After determining the optimal conditions for the agar screening method, 112 molecularly identified Trichophyton spp. clinical isolates were tested.

A. flavus complex = conditions: n = 6, EUCAST clinical breakpoints
[2] = test system: A. terreus sensu stricto isolates; experiment: AMB MIC (EUCAST) of isolates used for time-kill; assay type: cell-based; conditions: Aspergillus terreus
Description: Materials & Methods: Tolerance is the ability of a “susceptible isolate” to grow in the presence of AMB above the MIC; tolerant fungi are characterized by a longer minimum duration of killing time (MDK) than susceptible isolates. We investigated AMB-MDKs of A. terreus sensu stricto isolates (n = 4) representing susceptible (S < […]) and resistant (R > […]) phenotypes (EUCAST). Time-kill curve analysis (99% killing of the initial population) was performed in RPMI 1640 and AM3 media at different AMB concentrations, and in parallel, the germination rate was determined microscopically.

[3] = test system: Cryptococcus bacillisporus (AFLP5/VGIII); experiment: Treatment of a grey parrot with cryptococcosis; assay type: in vivo, grey parrot (Psittacus erithacus); conditions: in drinking water, 600 mg per litre, after 6 months
Excerpt: Phenotypic and molecular analysis of the isolated yeast allowed the identification of Cryptococcus bacillisporus (AFLP5/VGIII) as the cause of the infection.

C. glabrata = experiment: Antifungal susceptibility testing of blood culture isolate; assay type: cell-based, Candida glabrata; conditions: Nakaseomyces glabratus
Excerpt: Case presentation: A patient with a surgically corrected Tetralogy of Fallot and pulmonary valve replacement (BioPulmonic Conduit) was admitted to the cardiology ward for treatment of their progessively worsening symptomatic heart failure. Their medical history reports multiple other co-morbidities including supravalvular (prothetic pulmonary valve) stenosis, supraventricular tachycardia, atrial fibrillation, diabetes mellitus type I, and intellectual disability. No history of IV drug use or recent immunosuppressive therapy was reported. On admission they received diuretic treatment and a percutaneous intervention was planned to treat the supravalvular pulmonary stenosis. However, ten days after admission they developed fever (40.5 °C) with elevated C-reactive protein (237.9 mg/L) and leukocytosis (14.0 × 10^9/L). […] Anidulafungine IV was started and follow-up bloodcultures were taken routinely. The patient improved clinically and their inflammation markers normalized. However, the bloodcultures were persistently positive, albeit with periods of negative cultures, despite adequate treatment with high-dose anidulafungin 200 mg IV daily. International guidelines recommend surgery to treat Candida prostethic valve infective endocarditis and/or long-term suppressive therapy with antifungal drugs. […]

C. glabrata isolates = experiment: Rapid XTT assay based on EUCAST E.Def 7.3; assay type: cell-based, Candida glabrata
[4] = test system: CgCDR1, CgCDR2 and CgSNQ2 genes; experiment: Real-time PCR of ATP-binding cassette transporter genes; assay type: cell-based, Candida glabrata
[5] = test system: Candida albicans and C. glabrata; assay type: cell-based, Candida spp.; conditions: 20 women with RVVC
Aspergillus tubingensis = experiment: EUCAST susceptibility; assay type: cell-based; conditions: read-out: MIC
Description: The fungus was identified as Aspergillus niger and liposomal amphotericine B was switched to anidulafungin pending susceptibility testing as the patient had pre-existing […] (eGFR CKD-EPI 40 mL/min/1.73 m²). […] Despite increasing the anidulafungin dosage to 200 mg daily and adequate voriconazol levels, serum galactomannan levels remained elevated (index 2.1 at discharge). […] Since no extracardiac sources were found and the patient did well clinically, they were discharched. Anidulafungin was switched to caspofungin to facilitate ongoing IV treatment in the outpatient setting. […] The patient died shortly after. Obduction was not performed.

[6] = Therapeutic drug monitoring of VRC plasma levels; assay type: in vivo, human
Description: Materials & Methods: Patients are aged over 18 years and given antifungal therapy between January 2019–November 2020 in the Hacettepe University Hospitals were included. The study was approved by the University Clinical Research Ethics Committee. Demographics and antifungal treatment periods of the patients were analyzed retrospectively. As of January 2020, VRC plasma levels had started to be analyzed on a weekly basis in the study setting. Plasma VRC levels (target range: 1–5.5 mg/L) were measured by using liquid chromatography—triple quadrupole mass spectrometer (Shimadzu LCMS-8040). The impact of TDM on appropriateness of VRC treatment were evaluated by the numbers of treatment switch and the use of oral route.

Asp. fumigatus = experiment: Triazole resistance agar screening, four-well plate; conditions: RPMI agar, 1 µg/mL, 7 isolates
Description: (§1) All the isolates were identified phenotypically. […] Fungal spores were suspended in normal saline (0.85%) and adjusted to 0.5 McFarland and 50 μL was plated in each well. […] Plates were incubated at 35–37 °C for 72 h in ambient air. The presence or absence of growth was observed visually at 24 h, 48 h, and 72 h.

Asp. niger = experiment: as above; conditions: RPMI agar, 1 µg/mL, 14 isolates
Description: as §1

[7] = 7 terbinafine-resistant isolates
[8] = 9 terbinafine-susceptible isolates

CCC(C)n1ncn(-c2ccc(N3CCN(c4ccc(OCC5COC(Cn6cncn6)(c6ccc(Cl)cc6Cl)O5)cc4)CC3)cc2)c1=O (stereo not drawn) [itraconazole]
MIC (yeasts; four sensitive isolates): 0.03 mg/L (≈ 0.0425 µM) | MIC (yeasts; the other isolates, drug resistance): 0.06 to 16 mg/L (≈ 0.085 to 22.7 µM) | MIC range, drug alone [1, 7]: 0.0625 to 0.5 mg/L | MIC range, drug alone [1, 8]: 0.125 to 0.5 mg/L | MIC [1, 7]: 0.19 mg/L | MIC [1, 8]: 0.3 mg/L | optimal agar concentration preventing growth of WT isolates (Trichophyton spp.): 1 mg/L | isolates resistant (A. flavus complex): 17%

C[C@@H]1[C@H](O)[C@@H](C)/C=C/C=C/C=C/C=C/C=C/C=C/C=C/[C@H](O[C@@H]2O[C@H](C)[C@@H](O)[C@H](N)[C@@H]2O)C[C@@H]2O[C@](O)(C[C@@H](O)C[C@@H](O)[C@H](O)CC[C@@H](O)C[C@@H](O)CC(=O)O[C@H]1C)C[C@H](O)[C@H]2C(=O)O [amphotericin B]
MIC ([2]; A. terreus 81 and 31, each): 1 mg/L (≈ 1.08 µM) | MIC ([2]; A. terreus 134): 4 mg/L (≈ 4.33 µM) | MIC ([2]; A. terreus 164): 0.5 mg/L (≈ 0.541 µM) | clinical response [3]: good response | MIC (C. glabrata): 0.38 mg/L (≈ 0.411 µM)

OC(Cn1cncn1)(Cn1cncn1)c1ccc(F)cc1F [fluconazole]
XTT-absorbance in drug-treated wells (C. glabrata isolates): 0.67 ± 0.15 and 0.51 ± 0.08 | expression of CgCDR1, CgCDR2 and CgSNQ2 genes [4]: over-expressed | in vitro resistant pathogens [5]: 45% | increase of clearance per 100 g increase in actual bodyweight (in vivo): 16% | decrease of clearance per 10 µmol/L increase in creatinine concentration (once postnatal age was above 1 week): 12% | volume of distribution (one-compartment model, typical infant of 0.87 kg): 0.844 L | estimated clearance (one-compartment model, typical infant of 0.87 kg, serum creatinine 60 µmol/L, 41 preterm neonates, 146 plasma samples): 0.0147 L/h

C[C@@H](c1ncncc1F)[C@](O)(Cn1cncn1)c1ccc(F)cc1F [voriconazole]
MIC (Aspergillus tubingensis): 1 mg/L (≈ 2.86 µM) | median plasma level (range) ([6]; 88 levels in 34 patients, LC-MS): 4.2 (0.2–18.1) mg/L | Adverse effects, n (%) ([6]; Subtherapeutic (<1 mg/L)): 0 (0.0) | Adverse effects, n (%) ([6]; Supratherapeutic (>5.5 mg/L)): 4 (13.8) | Adverse effects, n (%) ([6]; Therapeutic (1–5.5 mg/L)): 0 (0.0) | VRC-related adverse effects ([6]; all at supratherapeutic levels): Four | plasma levels at subtherapeutic range (<1 mg/L), n (%) ([6]; n = 88): 14 (15.9%) | plasma levels at supratherapeutic range (>5.5 mg/L), n (%) ([6]; n = 88): 29 (33.0%) | plasma levels at therapeutic range (1–5.5 mg/L), n (%) ([6]; n = 88): 45 (51.1%) | isolates with growth only in voriconazole well, n (%) (Asp. fumigatus; 48 h): 0 | isolates with growth only in voriconazole well, n (%) (Asp. fumigatus; 72 h): 3 (42.85) | isolates with growth only in voriconazole well, n (%) (Asp. niger; 48 h): 0 | isolates with growth only in voriconazole well, n (%) (Asp. niger; 72 h): 2 (14.28)
